Experimental data: ChEMBL document CHEMBL1151484, “Preparation and anti-HIV activity of N-3 amino substituted thymidine nucleoside analogs” (Bioorg Med Chem Lett, 1992)

Key:
[1] = Tested for bone marrow cell toxicity expressed as burst forming unit for erythrocyte at a compound concentration of 100 mM in experiment-2; type: cell-based; conditions: human
Mus musculus [2] = assay: Effect of compound on Friend Complex Murine Leukemia Virus (F-MuLV) induced splenomegaly, expressed as percent inhibition at a dose of 4 mg/kg; type: functional
[3] = Tested for bone marrow cell toxicity expressed as colony forming unit of granulocyte -macrophage at a compound concentration of 3.6/30 mM in experiment-1; type: cell-based; conditions: human
Mus musculus [4] = assay: Effect of compound on Friend Complex Murine Leukemia Virus (F-MuLV) induced splenomegaly, spleen weights at a dose of 40 mg/kg; type: functional
[5] = Tested for bone marrow cell toxicity expressed as colony forming unit of granulocyte -macrophage at a compound concentration of 1 mM in experiment-2; type: cell-based; conditions: human, 1000 µM
[6] = Tested for bone marrow cell toxicity expressed as colony forming unit of granulocyte -macrophage at a compound concentration of 0.036 mM in experiment-1; type: cell-based; conditions: human, 36 µM
[7] = Tested for bone marrow cell toxicity expressed as colony forming unit of granulocyte -macrophage at a compound concentration of 10 mM in experiment-2; type: cell-based; conditions: human
[8] = Tested for bone marrow cell toxicity expressed as colony forming unit of granulocyte -macrophage at a compound concentration of 100 mM in experiment-2; type: cell-based; conditions: human
Mus musculus [9] = assay: Effect of compound on Friend Complex Murine Leukemia Virus (F-MuLV) induced splenomegaly, expressed as percent inhibition at a dose of 40 mg/kg; type: functional
[10] = Tested for bone marrow cell toxicity expressed as burst forming unit for erythrocyte at a compound concentration of 36/30 mM in experiment-1; type: cell-based; conditions: human
[11] = Tested for bone marrow cell toxicity expressed as colony forming unit of granulocyte -macrophage at a compound concentration of 36/30 mM in experiment-1; type: cell-based; conditions: human
[12] = Tested for bone marrow cell toxicity expressed as burst forming unit for erythrocyte at a compound concentration of 3.6/3 mM in experiment-1; type: cell-based; conditions: human
[13] = Tested for bone marrow cell toxicity expressed as burst forming unit for erythrocyte at a compound concentration of 0.036 mM in experiment-1; type: cell-based; conditions: human, 36 µM
[14] = Tested for bone marrow cell toxicity expressed as burst forming unit for erythrocyte at a compound concentration of 10 mM in experiment-2; type: cell-based; conditions: human
[15] = Tested for bone marrow cell toxicity expressed as burst forming unit for erythrocyte at a compound concentration of 0.036 mM in experiment-2; type: cell-based; conditions: human, 36 µM
Mus musculus [16] = assay: Effect of compound on Friend Complex Murine Leukemia Virus (F-MuLV) induced splenomegaly, expressed as percent inhibition at a dose of 12 mg/kg; type: functional
[17] = Tested for bone marrow cell toxicity expressed as colony forming unit of granulocyte -macrophage at a compound concentration of 36/30 mM in experiment-2; type: cell-based; conditions: human
Mus musculus [18] = assay: Effect of compound on Friend Complex Murine Leukemia Virus (F-MuLV) induced splenomegaly, spleen weights at a dose of 4 mg/kg; type: functional
[19] = Tested for bone marrow cell toxicity expressed as colony forming unit of granulocyte -macrophage at a compound concentration of 3.6/30 mM in experiment-2; type: cell-based; conditions: human
[20] = Tested for bone marrow cell toxicity expressed as colony forming unit of granulocyte -macrophage at a compound concentration of 360 mM in experiment-1; type: cell-based; conditions: human
[21] = Tested for bone marrow cell toxicity expressed as burst forming unit for erythrocyte at a compound concentration of 1 mM in experiment-2; type: cell-based; conditions: human, 1000 µM
[22] = Tested for bone marrow cell toxicity expressed as burst forming unit for erythrocyte at a compound concentration of 0.36 mM in experiment-1; type: cell-based; conditions: human, 360 µM
[23] = Tested for bone marrow cell toxicity expressed as burst forming unit for erythrocyte at a compound concentration of 360 mM in experiment-1; type: cell-based; conditions: human
[24] = Tested for bone marrow cell toxicity expressed as burst forming unit for erythrocyte at a compound concentration of 3.6/3 mM in experiment-2; type: cell-based; conditions: human
[25] = Tested for bone marrow cell toxicity expressed as burst forming unit for erythrocyte at a compound concentration of 36/30 mM in experiment-2; type: cell-based; conditions: human
Mus musculus [26] = assay: Effect of compound on Friend Complex Murine Leukemia Virus (F-MuLV) induced splenomegaly, spleen weights at a dose of 12 mg/kg; type: functional
[27] = Tested for bone marrow cell toxicity expressed as colony forming unit of granulocyte -macrophage at a compound concentration of 0.36 mM in experiment-1; type: cell-based; conditions: human, 360 µM
[28] = Tested for bone marrow cell toxicity expressed as colony forming unit of granulocyte -macrophage at a compound concentration of 300 mM in experiment-1; type: cell-based; conditions: human
[29] = Tested for bone marrow cell toxicity expressed as burst forming unit for erythrocyte at a compound concentration of 1 mM in experiment-1; type: cell-based; conditions: human, 1000 µM
[30] = Tested for bone marrow cell toxicity expressed as burst forming unit for erythrocyte at a compound concentration of 3 mM in experiment-1; type: cell-based; conditions: human, 3000 µM
[31] = Tested for bone marrow cell toxicity expressed as colony forming unit of granulocyte -macrophage at a compound concentration of 10 mM in experiment-1; type: cell-based; conditions: human
[32] = Tested for bone marrow cell toxicity expressed as burst forming unit for erythrocyte at a compound concentration of 3 mM in experiment-2; type: cell-based; conditions: human, 3000 µM
[33] = Tested for bone marrow cell toxicity expressed as colony forming unit of granulocyte -macrophage at a compound concentration of 100 mM in experiment-1; type: cell-based; conditions: human
[34] = Tested for bone marrow cell toxicity expressed as colony forming unit of granulocyte -macrophage at a compound concentration of 3 mM in experiment-1; type: cell-based; conditions: human, 3000 µM
[35] = Tested for bone marrow cell toxicity expressed as colony forming unit of granulocyte -macrophage at a compound concentration of 3 mM in experiment-2; type: cell-based; conditions: human, 3000 µM
[36] = Tested for bone marrow cell toxicity expressed as colony forming unit of granulocyte -macrophage at a compound concentration of 0.3 mM in experiment-2; type: cell-based; conditions: human, 300 µM
[37] = Tested for bone marrow cell toxicity expressed as colony forming unit of granulocyte -macrophage at a compound concentration of 30 mM in experiment-2; type: cell-based; conditions: human
[38] = Tested for bone marrow cell toxicity expressed as burst forming unit for erythrocyte at a compound concentration of 10 mM in experiment-1; type: cell-based; conditions: human
[39] = Tested for bone marrow cell toxicity expressed as colony forming unit of granulocyte -macrophage at a compound concentration of 1 mM in experiment-1; type: cell-based; conditions: human, 1000 µM
[40] = Tested for bone marrow cell toxicity expressed as burst forming unit for erythrocyte at a compound concentration of 30 mM in experiment-1; type: cell-based; conditions: human
[41] = Tested for bone marrow cell toxicity expressed as burst forming unit for erythrocyte at a compound concentration of 30 mM in experiment-2; type: cell-based; conditions: human
[42] = Tested for bone marrow cell toxicity expressed as burst forming unit for erythrocyte at a compound concentration of 0.3 mM in experiment-2; type: cell-based; conditions: human, 300 µM
[43] = Tested for bone marrow cell toxicity expressed as burst forming unit for erythrocyte at a compound concentration of 100 mM in experiment-1; type: cell-based; conditions: human
CCRF-CEM [44] = assay: In vitro anti -HIV activity of compound determined against the LAV Bru infected CEM cells; Highly cytotoxic at low dose; type: functional, Homo sapiens
CCRF-CEM [45] = assay: In vitro anti -HIV activity of compound determined against the LAV Bru strain infected CEM cells at dose up to 100 uM; type: functional, Homo sapiens

Cc1cn(C2CC(N=[N+]=[N-])C(CO)O2)c(=O)n(N)c1=O (stereo unspecified)
BFU [1]: 158
inhibition in vivo at 4 mg/kg (Mus musculus [2]): 28%
CFU [3]: 31.3
Spleen weight (Mus musculus [4]): 607 mg
CFU [5]: 12.3
CFU [6]: 48.3
CFU [7]: 10
CFU [8]: 9.3
inhibition in vivo at 40 mg/kg (Mus musculus [9]): 55%
BFU [10]: 98
CFU [11]: 28.3
BFU [12]: 140
BFU [13]: 94
BFU [14]: 170
BFU [15]: 10
inhibition in vivo at 12 mg/kg (Mus musculus [16]): 46%
CFU [17]: 11.3
Spleen weight (Mus musculus [18]): 907 mg
CFU [19]: 14
CFU [20]: 0.7
BFU [21]: 249
BFU [22]: 142
BFU [23]: 111
BFU [24]: 218
BFU [25]: 198
Spleen weight (Mus musculus [26]): 715 mg
CFU [27]: 31.3
CFU [28]: 0.3

Cc1cn([C@H]2C[C@H](N=[N+]=[N-])[C@@H](CO)O2)c(=O)[nH]c1=O [ZIDOVUDINE]
BFU [29]: 120
inhibition in vivo at 4 mg/kg (Mus musculus [2]): 46%
Spleen weight (Mus musculus [4]): 357 mg
CFU [5]: 4.7
CFU [7]: 1
BFU [30]: 88
inhibition in vivo at 40 mg/kg (Mus musculus [9]): 78%
CFU [31]: 4.3
BFU [32]: 79
CFU [33]: 1
CFU [34]: 18.7
CFU [35]: 4.5
CFU [36]: 10.7
BFU [14]: 79
inhibition in vivo at 12 mg/kg (Mus musculus [16]): 50%
CFU [37]: 0
Spleen weight (Mus musculus [18]): 706 mg
BFU [38]: 76
CFU [39]: 33.4
BFU [21]: 132
BFU [40]: 46
BFU [41]: 59
BFU [42]: 143
Spleen weight (Mus musculus [26]): 669 mg
BFU [43]: 4

Cc1cn([C@H]2C[C@H](F)[C@@H](CO)O2)c(=O)[nH]c1=O [ALOVUDINE]
Activity (CCRF-CEM [44]): 0.1 µM

Cc1cn(C2CC(F)C(CO)O2)c(=O)n(N)c1=O (stereo unspecified)
Activity (CCRF-CEM [44]): 0.1 µM

Cc1cn(C2C=CC(CO)O2)c(=O)n(N)c1=O (stereo unspecified)
Activity (CCRF-CEM [45]): 40 µM
